Assay [1] addresses alcool déshydrogénase (ADH), préparation ADH-LYS-PAA (poly-lysine-résine, forme immobilisée) (Saccharomyces cerevisiae, UniProt P00330). Put plainly: Two-substrate ordered kinetics of alcohol dehydrogenase, polylysine-grafted preparation copolymerised in polyacrylamide gel. In kind it is biochemical. To be noted: enzyme incorporated in polyacrylamide gel; apparent value, diffusion effects. The source says: (§1) L'alcool déshydrogénase étant un enzyme suivant une réaction ordonnée à deux substrats, sa cinétique répond à l'équation : [formula] Ka et Kb sont les constantes de type Michaelis-Menten correspondant à la dissociation du complexe ternaire du NAD⁺ et de l'éthanol alors que Kia représente la constante de dissociation du complexe binaire ADH-NAD⁺ (Wratten et Cleland, 1963, Biochemistry 2, 935-941).
(§2) Les valeurs des constantes pour les diverses préparations sont donnés au tableau 3. Nous ne pouvons pas ici interpréter chacune de ces valeurs et nous nous limiterons aux variations les plus importantes. En ce qui concerne le Kia, rappelons que plus le Kia est petit, plus l'affinité de l'enzyme pour la fixation de son premier substrat, le NAD⁺ est grande. Nous remarquons peu de variation pour les préparations solubles excepté pour la polylysine. […] Il faut aussi tenir compte de la charge positive de la lysine qui pourrait inhiber la diffusion du NAD⁺. Dans le cas de Ka et Kb, la fixation des peptides sur l'enzyme augmente les constantes, c'est-à-dire diminue l'affinité de fixation de ces substrats sur les complexes quaternaires de l'enzyme. Dans le cas des enzymes incorporés dans le gel, on constate aussi certains changements mais il faut en plus de l'effet du micro-environnement tenir compte des effets de diffusion. […]

Assay [2] addresses alcool déshydrogénase (ADH), préparation ADH-LYS (polylysine, forme soluble) (Saccharomyces cerevisiae, UniProt P00330). Nature of the assay: Two-substrate ordered kinetics of alcohol dehydrogenase, soluble polylysine-grafted preparation. The class given is biochemical. Particulars: compared with the other soluble preparations.
Text: as §1, §2

Chain of alcool déshydrogénase (ADH), préparation ADH-LYS-PAA (poly-lysine-résine, forme immobilisée) (P00330 2-348): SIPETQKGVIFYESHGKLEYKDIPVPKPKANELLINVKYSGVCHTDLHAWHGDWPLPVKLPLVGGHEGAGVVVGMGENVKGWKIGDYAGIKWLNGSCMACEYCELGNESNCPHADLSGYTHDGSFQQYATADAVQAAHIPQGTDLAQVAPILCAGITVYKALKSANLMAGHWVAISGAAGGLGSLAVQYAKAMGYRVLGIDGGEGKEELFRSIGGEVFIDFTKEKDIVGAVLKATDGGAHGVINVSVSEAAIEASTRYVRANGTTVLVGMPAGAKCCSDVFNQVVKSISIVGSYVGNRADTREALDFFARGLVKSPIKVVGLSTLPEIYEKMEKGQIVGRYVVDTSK
Chain of alcool déshydrogénase (ADH), préparation ADH-LYS (polylysine, forme soluble) (P00330 2-348): as above

As for `NC(=O)c1ccc[n+]([C@@H]2O[C@H](COP(=O)([O-])OP(=O)(O)OC[C@H]3O[C@@H](n4cnc5c(N)ncnc54)[C@H](O)[C@@H]3O)[C@@H](O)[C@H]2O)c1` [NAD⁺], the “Kia (constante de dissociation du complexe binaire ADH-NAD⁺)” value in assay [1] is “très faible”; in assay [2], “baisse d'affinité”.
